Data published in patent publication US8975263B2, “Phenylxanthene derivatives” (Daiichi Sankyo Company, Limited, priority 2013, dated 2015).

System: C57BL/6J mice
Test: Oral glucose tolerance test
Format: in vivo
Conditions: male C57BL/6J mice, fasted overnight, oral gavage 10 mg/kg, glucose 3 g/kg orally 30 minutes after compound, area under the curve of blood glucose level relative to control group
Procedure: Commercially available mice (C57BL/6J mice; male; 8 to 12 weeks old when used; distributed by Charles River Laboratories Japan, Inc.) were used.
After acclimatization with freely feeding (FR-2, Funabashi Farm Co., Ltd.) for one week or more, the mice were fasted overnight and then used for the test. A 0.5% methylcellulose (Wako Pure Chemical Industries, Ltd.) solution (0.5% MC) containing a test compound at a concentration of 1 mg/ml and a mixed solution (PG:Tween) of propylene glycol (80 v/v %, Nacalai Tesque, Inc.) and Tween 80 (20 v/v %, Nacalai Tesque, Inc.) containing a test compound at a concentration of 2 mg/ml were prepared for administration to the mice. The prepared solution was administered by oral gavage to four or five mice in each group at a dose of 10 mg/kg as the test compound. For a control group, a 0.5% methylcellulose solution (dose: 10 ml/kg) or a mixed solution of propylene glycol and Tween 80 (dose: 5 ml/kg) was orally administered to mice. An oral glucose tolerance test was carried out by administering a glucose solution (Otsuka Glucose Solution 50%; Otsuka Pharmaceutical Factory, Inc.) orally at a dose of 3 g/kg to the mice 30 minutes after administration of the test compound.
Blood was collected from the tail vein of each mouse immediately before administration of the test compound (T0), […] after administration of the test compound (T1), and 30 minutes (T2) and 90 minutes (T3) after oral glucose loading. The blood glucose level was measured using a blood glucose level measuring apparatus (ACCU-CHEK Aviva; Roche Diagnostics, K.K.). The blood glucose level T1 was analyzed as a value obtained 30 minutes after administration of the compound and immediately before glucose loading. According to the following formula, the area under the curve of blood glucose level was calculated, and thereafter, the blood glucose lowering rate (%) was calculated as a value relative to the control group. The area under the curve of blood glucose level=[(blood glucose level T0+blood glucose level T1)×30]÷2+[(blood glucose level T1+blood glucose level T2)×30]÷2+[(blood glucose level T2+blood glucose level T3)×60]÷2 Blood glucose lowering rate(%)=[1−(the area under the curve of blood glucose level for the test compound group/the area under the curve of blood glucose level for the control group)]×100

| SMILES | Blood glucose lowering rate (%) (solvent 0.5% MC) | Blood glucose lowering rate (%) (solvent PG:Tween) |
| --- | --- | --- |
| COc1ccc(-c2ccc(C)c(C(=O)NS(C)(=O)=O)n2)c(C)c1C1C2=C(CC(C)(C)CC2=O)OC2=C1C(=O)CC(C)(C)C2 [Example 16, 6-[4-Methoxy-2-methyl-3-(3,3,6,6-tetramethyl-1,8-dioxo-2,3,4,5,6,7,8,9-octahydro-1H-xanthen-9-yl)phenyl]-3-methyl-N-(methylsulfonyl)pyridine-2-carboxamide] | 45 |  |
| CCc1ccc(-c2ccc(OC)c(C3C4=C(CC(C)(C)CC4=O)OC4=C3C(=O)CC(C)(C)C4)c2C)nc1C(=O)NS(C)(=O)=O [Example 17, 3-Ethyl-6-[4-methoxy-2-methyl-3-(3,3,6,6-tetramethyl-1,8-dioxo-2,3,4,5,6,7,8,9-octahydro-1H-xanthen-9-yl)phenyl]-N-(methylsulfonyl)pyridine-2-carboxamide] | 43 |  |
| CC(C)(C)N.COc1ccc(-c2cccc(C(=O)NS(C)(=O)=O)n2)c(C)c1C1C2=C(CC(C)(C)CC2=O)OC2=C1C(=O)CC(C)(C)C2 [Example 18, 6-[4-methoxy-2-methyl-3-(3,3,6,6-tetramethyl-1,8-dioxo-2,3,4,5,6,7,8,9-octahydro-1H-xanthen-9-yl)phenyl]-N-(methylsulfonyl)pyridine-2-carboxamide 2-methylpropan-2-amine salt] | 31 |  |
| COc1ccc(-c2ccc(C)c(C(=O)NS(C)(=O)=O)n2)c(C)c1C1C2=C(CC(C)(C)CC2=O)OC2=C1C(=O)CC(C)(C)C2.[Na] [Example 19, 6-[4-Methoxy-2-methyl-3-(3,3,6,6-tetramethyl-1,8-dioxo-2,3,4,5,6,7,8,9-octahydro-1H-xanthen-9-yl)phenyl]-3-methyl-N-(methylsulfonyl)pyridine-2-carboxamide sodium salt] | 40 |  |
| COc1ccc(-c2cccc(C(=O)NS(C)(=O)=O)n2)c(C)c1C1C2=C(CC(C)(C)CC2=O)OC2=C1C(=O)CC(C)(C)C2.COc1ccc(-c2cccc(C(=O)NS(C)(=O)=O)n2)c(C)c1C1C2=C(CC(C)(C)CC2=O)OC2=C1C(=O)CC(C)(C)C2.[Ca] [Example 20, 6-[4-Methoxy-2-methyl-3-(3,3,6,6-tetramethyl-1,8-dioxo-2,3,4,5,6,7,8,9-octahydro-1H-xanthen-9-yl)phenyl]-N-(methylsulfonyl)pyridine-2-carboxamide hemi-calcium salt] | 41 |  |
| COc1ccc(-c2ccc(C)c(C(=O)NS(C)(=O)=O)n2)c(C)c1C1C2=C(CC(C)(C)CC2=O)OC2=C1C(=O)CC(C)(C)C2.COc1ccc(-c2ccc(C)c(C(=O)NS(C)(=O)=O)n2)c(C)c1C1C2=C(CC(C)(C)CC2=O)OC2=C1C(=O)CC(C)(C)C2.[Ca] [Example 21, 6-[4-Methoxy-2-methyl-3-(3,3,6,6-tetramethyl-1,8-dioxo-2,3,4,5,6,7,8,9-octahydro-1H-xanthen-9-yl)phenyl]-3-methyl-N-(methylsulfonyl)pyridine-2-carboxamide hemi-calcium salt] | 54 |  |
| COc1ccc(-c2ccc(OC)c(C3C4=C(CC(C)(C)CC4=O)OC4=C3C(=O)CC(C)(C)C4)c2C)nc1C(=O)O [Example 23, 3-Methoxy-6-[4-methoxy-2-methyl-3-(3,3,6,6-tetramethyl-1,8-dioxo-2,3,4,5,6,7,8,9-octahydro-1H-xanthen-9-yl)phenyl]pyridine-2-carboxylic acid] |  | 46 |
| CCOc1ccc(-c2ccc(OC)c(C3C4=C(CC(C)(C)CC4=O)OC4=C3C(=O)CC(C)(C)C4)c2C)nc1C(=O)O [Example 28, 3-Ethoxy-6-[4-methoxy-2-methyl-3-(3,3,6,6-tetramethyl-1,8-dioxo-2,3,4,5,6,7,8,9-octahydro-1H-xanthen-9-yl)phenyl]pyridine-2-carboxylic acid] |  | 60 |
| COCCOc1ccc(-c2ccc(OC)c(C3C4=C(CC(C)(C)CC4=O)OC4=C3C(=O)CC(C)(C)C4)c2C)nc1C(=O)O [Example 29, 3-(2-Methoxyethoxy)-6-[4-methoxy-2-methyl-3-(3,3,6,6-tetramethyl-1,8-dioxo-2,3,4,5,6,7,8,9-octahydro-1H-xanthen-9-yl)phenyl]pyridine-2-carboxylic acid] | 32 |  |
| COc1ccc(-c2ccc(C)c(C(=O)O)n2)cc1C1C2=C(CC(C)(C)CC2=O)OC2=C1C(=O)CC(C)(C)C2 [Example 30, 6-[4-Methoxy-3-(3,3,6,6-tetramethyl-1,8-dioxo-2,3,4,5,6,7,8,9-octahydro-1H-xanthen-9-yl)phenyl]-3-methylpyridine-2-carboxylic acid] | 55 |  |
| COc1ccc(-c2ccc(C)c(C(=O)NS(C)(=O)=O)n2)cc1C1C2=C(CC(C)(C)CC2=O)OC2=C1C(=O)CC(C)(C)C2 [Example 31, 6-[4-Methoxy-3-(3,3,6,6-tetramethyl-1,8-dioxo-2,3,4,5,6,7,8,9-octahydro-1H-xanthen-9-yl)phenyl]-3-methyl-N-(methylsulfonyl)pyridine-2-carboxamide] | 42 |  |
| COc1ccc(-c2cc(C)cc(C(=O)O)n2)c(C)c1C1C2=C(CC(C)(C)CC2=O)OC2=C1C(=O)CC(C)(C)C2 [Example 32, 6-[4-Methoxy-2-methyl-3-(3,3,6,6-tetramethyl-1,8-dioxo-2,3,4,5,6,7,8,9-octahydro-1H-xanthen-9-yl)phenyl]-4-methylpyridine-2-carboxylic acid] | 59 |  |
| COc1ccc(-c2nc(C(=O)O)ccc2C)c(C)c1C1C2=C(CC(C)(C)CC2=O)OC2=C1C(=O)CC(C)(C)C2 [Example 34, 6-[4-Methoxy-2-methyl-3-(3,3,6,6-tetramethyl-1,8-dioxo-2,3,4,5,6,7,8,9-octahydro-1H-xanthen-9-yl)phenyl]-5-methylpyridine-2-carboxylic acid] | 58 |  |
| COc1ccc(-c2ccc(C)c(C(=O)NS(C)(=O)=O)n2)cc1C1C2=C(CC(C)(C)CC2=O)OC2=C1C(=O)CC(C)(C)C2.[K] [Example 35, 6-[4-Methoxy-3-(3,3,6,6-tetramethyl-1,8-dioxo-2,3,4,5,6,7,8,9-octahydro-1H-xanthen-9-yl)phenyl]-3-methyl-N-(methylsulfonyl)pyridine-2-carboxamide potassium salt] | 52 |  |
| COc1ccc(-c2cc(C)cc(C(=O)NS(C)(=O)=O)n2)c(C)c1C1C2=C(CC(C)(C)CC2=O)OC2=C1C(=O)CC(C)(C)C2 [Example 40, 6-[4-Methoxy-2-methyl-3-(3,3,6,6-tetramethyl-1,8-dioxo-2,3,4,5,6,7,8,9-octahydro-1H-xanthen-9-yl)phenyl]-4-methyl-N-(methylsulfonyl)pyridine-2-carboxamide] | 38 |  |
| CC(C)(C)N.COc1ccc(-c2ccc(C)c(C(=O)NS(C)(=O)=O)n2)c(C)c1C1C2=C(CC(C)(C)CC2=O)OC2=C1C(=O)CC(C)(C)C2 [Example 41, 6-[4-Methoxy-2-methyl-3-(3,3,6,6-tetramethyl-1,8-dioxo-2,3,4,5,6,7,8,9-octahydro-1H-xanthen-9-yl)phenyl]-3-methyl-N-(methylsulfonyl)pyridine-2-carboxamide 2-methylpropan-2-amine salt] | 44 |  |
| CC(C)(C)N.COc1ccc(-c2cc(C)cc(C(=O)NS(C)(=O)=O)n2)c(C)c1C1C2=C(CC(C)(C)CC2=O)OC2=C1C(=O)CC(C)(C)C2 [Example 42, 6-[4-Methoxy-2-methyl-3-(3,3,6,6-tetramethyl-1,8-dioxo-2,3,4,5,6,7,8,9-octahydro-1H-xanthen-9-yl)phenyl]-4-methyl-N-(methylsulfonyl)pyridine-2-carboxamide 2-methylpropan-2-amine salt] | 44 |  |
| COc1ccc(-c2cc(C)c(C)c(C(=O)O)n2)c(C)c1C1C2=C(CC(C)(C)CC2=O)OC2=C1C(=O)CC(C)(C)C2 [Example 43, 6-[4-Methoxy-2-methyl-3-(3,3,6,6-tetramethyl-1,8-dioxo-2,3,4,5,6,7,8,9-octahydro-1H-xanthen-9-yl)phenyl]-3,4-dimethylpyridine-2-carboxylic acid] | 60 |  |
| COc1ccc(-c2cc(C)c(C)c(C(=O)NS(C)(=O)=O)n2)c(C)c1C1C2=C(CC(C)(C)CC2=O)OC2=C1C(=O)CC(C)(C)C2 [Example 44, 6-[4-Methoxy-2-methyl-3-(3,3,6,6-tetramethyl-1,8-dioxo-2,3,4,5,6,7,8,9-octahydro-1H-xanthen-9-yl)phenyl]-3,4-dimethyl-N-(methylsulfonyl)pyridine-2-carboxamide] | 44 |  |
